Target: T1, HIV-1 protease (Human immunodeficiency virus type 1 group M subtype B, UniProt P04585)
T1 construct: The protease (or proteinase), consisting of only 99 amino acids, is among the smallest enzymes known
Assay: In vitro HIV protease inhibitory assay (HIV Protease FITC Assay)
Format: biochemical
Settings: for inhibition at 0.41 µM: HIV-1 Dose 0.410 uM; for inhibition at 1.23 µM: HIV-1 Dose 1.230 uM; for inhibition at 3.7 µM: HIV-1 Dose 3.700 uM; for inhibition at 11 µM: HIV-1 Dose 11.000 uM; for inhibition at 33 µM: HIV-1 Dose 33.000 uM; for inhibition at 100 µM: HIV-1 Dose 100.000 uM; for inhibition at 10 µM: HIV-1 Dose 10.000 uM; for Ki: read-out: HIV-1 FITC Ki; for inhibition at 1 µM: HIV-1 Dose 1.000 uM
Procedure: The HIV protease screening assay is based on a fluorescently labeled substrate which can be resolved from nonlabeled cleavage product using avidin-polystyrene particles, 0.7-0.9 µm. The substrate is biotinylated at the amino terminal arginine and fluorescently labeled with fluorescein isothiocynate (FITC) at the carboxyl terminal lysine. […] Substrate (20 µl of 0.2 µM), sample (10 µl of desired concentraion), and enzyme (10 µl of 0.1 µM) are added to a 96 well pandex plate. The assay is run in 0.1 M sodium acetate buffer at pH 5.5 in the presence of 1.0 M sodium chloride and 0.05% NP-40 and incubated in the dark for one hour at room temperature. Avidin coated polystyrene beads {40 µl of 0.1% (w/v)} are added and the incubation is continued in the dark for an additional half hour. The labeled cleavage product is separated from the unreacted substrate via filtration and is read on the Idexx Screen Machine. The data are analyzed by appropriate computer algorithms to ascertain percent inhibition values.

[1] = read-out: HIV-1 Protease % Inhib

SMILES | inhibition at 0.41 µM [1] [%] | inhibition at 1.23 µM [1] [%] | inhibition at 3.7 µM [1] [%] | inhibition at 11 µM [1] [%] | inhibition at 33 µM [1] [%] | inhibition at 100 µM [1] [%] | inhibition at 0.123 µM (HIV-1 Dose 0.123 uM, read-out: HIV-1 Protease % Inhib) [%] | inhibition at 0.37 µM (HIV-1 Dose 0.370 uM, read-out: HIV-1 Protease % Inhib) [%] | inhibition at 1.1 µM (HIV-1 Dose 1.100 uM, read-out: HIV-1 Protease % Inhib) [%] | inhibition at 3.3 µM (HIV-1 Dose 3.300 uM, read-out: HIV-1 Protease % Inhib) [%] | inhibition at 10 µM [1] [%] | inhibition at 30 µM (HIV-1 Dose 30.000 uM, read-out: HIV-1 Protease % Inhib) [%] | Ki [nM] | inhibition at 1 µM [1] [%]
CCC(Cc1ccccc1)c1cc(O)c(C(c2cccc(NC(=O)OCc3ccccc3)c2)C2CC2)c(=O)o1 (stereo not drawn) [Example 36, 3-(α-Cyclopropyl-meta-(benzyloxycarbonylamino)benzyl)-6-(α-ethyl-phenethyl)-4-hydroxy-2H-pyran-2-one] | < 10 | 13.7 | 43.4 | 73.7 | 77.2 | 87.5 |  |  |  |  |  |  |  | 
O=C(CCn1ccc2ccccc21)Nc1cccc(C(c2c(O)cc(C(CC3CC3)CC3CC3)oc2=O)C2CC2)c1 (stereo not shown) [Example 39, N-(3-(Cyclopropyl-[6-(2-cyclopropyl-1-cyclopropylmethyl-ethyl)-4-hydroxy-2-oxo-2H-pyran-3-yl]-methyl)-phenyl)-3-indol-1-yl-propionamide] |  |  |  |  |  |  | < 10 | 24.8 | 60.6 | 86.3 | 91.8 | 94.5 | 96 | 
CCCC(CCC)c1cc(O)c(C(CC)c2ccccc2)c(=O)o1 (stereo not shown) [Example 40, 4-Hydroxy-3-(1-phenyl-propyl)-6-(1-propyl-butyl)-pyran-2-one] |  |  |  |  |  | 80 |  |  |  |  | 79.5 |  |  | 37.2
C=CC(c1ccccc1)c1c(O)cc(C(CCC)CCC)oc1=O (stereo not shown) [Example 41, 4-Hydroxy-3-(1-phenyl-allyl)-6-(1-propyl-butyl)-pyran-2-one] |  |  |  |  |  | 80.9 |  |  |  |  | 65.9 |  |  | 21.2
CC(C)(C)OC(=O)CCc1cc(O)c(C(c2ccccc2)C2CC2)c(=O)o1 (stereo not shown) [Example 42, 3-(5-(Cyclopropyl-phenyl-methyl)-4-hydroxy-6-oxo-6H-pyran-2-yl)-propionic acid tert-butyl ester] |  |  |  |  |  | 105 |  |  |  |  | 74.7 |  | 520 | 19.7
Cc1noc(C)c1CCc1cc(O)c(C(c2ccccc2)C2CC2)c(=O)o1 (stereo not shown) [Example 43, 3-(Cyclopropyl-phenyl-methyl)-6-(2-(3,5-dimethyl-isoxazol-4-yl)-ethyl)-4-hydroxy-pyran-2-one] |  |  |  |  |  | 97.3 |  |  |  |  | 89.4 |  | 460 | 44.6
CC(C)(C)c1nc(CCc2cc(O)c(C(c3ccccc3)C3CC3)c(=O)o2)no1 (stereo not shown) [Example 44, 6-(2-(5-Tert-butyl-(1,2,4)oxadiazol-3-yl)-ethyl)-3-(cyclopropyl-phenyl-methyl)-4-hydroxy-pyran-2-one] | < 10 | 24.9 | 57.3 | 84.3 | 106 | 114 |  |  |  |  |  |  | 1840 | 
CCC(CC1CCOC1)c1cc(O)c(C(c2ccccc2)C2CC2)c(=O)o1 (stereo not shown) [Example 45, 3-(Cyclopropyl-phenyl-methyl)-4-hydroxy-6-(1-(tetrahydro-furan-3-ylmethyl)-propyl)-pyran-2-one] | 79.3 | 94.4 | 101 | 103 | 114 | 116 |  |  |  |  |  |  | 53 | 
O=c1oc(C(Cc2ccccc2)Cc2ccccn2)cc(O)c1C(c1ccccc1)C1CC1 (stereo not shown) [Example 46, 3-(Cyclopropyl-phenyl-methyl)-4-hydroxy-6-(2-phenyl-1-pyridin-2-ylmethyl-ethyl)-pyran-2-one] | 29.2 | 65 | 91.6 | 94.2 | 103 | 115 |  |  |  |  |  |  | 313 | 
O=c1oc(CCC2OCCO2)cc(O)c1C(c1ccccc1)C1CC1 (stereo not shown) [Example 47, 3-(Cyclopropyl-phenyl-methyl)-6-(2-(1,3)dioxolan-2-yl-ethyl)-4-hydroxy-pyran-2-one] | < 10 | 19.4 | 50 | 73.2 | 91.3 | 107 |  |  |  |  |  |  | 505 | 
O=c1oc(CCCCN2CCOCC2)cc(O)c1C(c1ccccc1)C1CC1 (stereo not shown) [Example 48, 3-(Cyclopropyl-phenyl-methyl)-4-hydroxy-6-(4-morpholin-4-yl-butyl)-pyran-2-one] | < 10 | < 10 | < 10 | < 10 | 31.3 | 61.6 |  |  |  |  |  |  |  | 
O=c1oc(CCc2ccccn2)cc(O)c1C(c1ccccc1)C1CC1 (stereo not shown) [Example 49, 3-(Cyclopropyl-phenyl-methyl)-4-hydroxy-6-(2-pyridin-2-yl-ethyl)-pyran-2-one] | < 10 | 24.6 | 52.3 | 80 | 93.7 | 98.3 |  |  |  |  |  |  | 425 | 
Cc1nc(CCc2cc(O)c(C(c3ccccc3)C3CC3)c(=O)o2)cs1 (stereo not shown) [Example 50, 3-(Cyclopropyl-phenyl-methyl)-4-hydroxy-6-(2-(2-methyl-thiazol-4-yl)-ethyl)-pyran-2-one] | < 10 | 22.1 | 55.5 | 80.5 | 96 | 106 |  |  |  |  |  |  | 353 | 
O=c1oc(CCc2ccc3ccccc3n2)cc(O)c1C(c1ccccc1)C1CC1 (stereo not shown) [Example 51, 3-(Cyclopropyl-phenyl-methyl)-4-hydroxy-6-(2-quinolin-2-yl-ethyl)-pyran-2-one] | < 10 | < 10 | 23.4 | 50.7 | 70 | 83.7 |  |  |  |  |  |  |  | 
CCC(Cc1ccc(Cl)s1)c1cc(O)c(C(c2ccccc2)C2CC2)c(=O)o1 (stereo not shown) [Example 52, 6-(1-(5-Chloro-thiophen-2-ylmethyl)-propyl)-3-(cyclopropyl-phenyl-methyl)-4-hydroxy-pyran-2-one] | 66.6 | 86.2 | 106 | 112 | 116 | 113 |  |  |  |  |  |  | 43 | 
O=c1oc(CCCCl)cc(O)c1C(c1ccccc1)C1CC1 (stereo not shown) [Example 53, 6-(3-Chloro-propyl)3-(cyclopropyl-phenyl-methyl)-4-hydroxy-pyran-2-one] | 19.4 | 47.5 | 86 | 102 | 117 | 120 |  |  |  |  |  |  | 220 | 
CCC(Cc1c(C)noc1C)c1cc(O)c(C(c2ccccc2)C2CC2)c(=O)o1 (stereo not shown) [Example 54, 3-(Cyclopropyl-phenyl-methyl)-6(1-(3,5-dimethyl-isoxazol-4-ylmethyl)-propyl)-4-hydroxy-pyran-2-one] | 85 | 95.8 | 109 | 113 | 117 | 100 |  |  |  |  |  |  | 72 | 
CCC(Cc1csc(-c2ccc(Cl)cc2)n1)c1cc(O)c(C(c2ccccc2)C2CC2)c(=O)o1 (stereo not shown) [Example 55, 6-(1-(2-(4-Chloro-phenyl)-thiazol-4-ylmethyl)-propyl)-3-(cyclopropyl-phenyl-methyl)-4-hydroxy-pyran-2-one] | < 10 | 24.1 | 59.6 | 92.1 | 89.6 | 102 |  |  |  |  |  |  | 578 | 
CCC(CC1CCCO1)c1cc(O)c(C(c2ccccc2)C2CC2)c(=O)o1 (stereo not shown) [Example 56, 3-(Cyclopropyl-phenyl-methyl)-4-hydroxy-6-(1-(tetrahydro-furan-2-ylmethyl)-propyl)-pyran-2-one] | 92.6 | 97.7 | 106 | 117 | 119 | 109 |  |  |  |  |  |  | 37 | 
CCC(Cc1cccs1)c1cc(O)c(C(c2ccccc2)C2CC2)c(=O)o1 (stereo not shown) [Example 57, 3-(Cyclopropyi-phenyl-methyl)-4-hydroxy-6-(1-thiophen-2-ylmethyl-propyl)-pyran-2-one] | 76.7 | 89.4 | 103 | 108 | 114 | 116 |  |  |  |  |  |  | 63 | 
CCC(CC1CCOCC1)c1cc(O)c(C(c2ccccc2)C2CC2)c(=O)o1 (stereo not shown) [Example 58] | 74.5 | 91.1 | 107 | 108 | 115 | 110 |  |  |  |  |  |  | 48 | 

— EP1203770A1 (priority 1992, dated 1994)
